Data on eight compounds can be found in patent publication US9556203B2, “Conformationally restricted P13K and mTOR inhibitors” (UNIVERSITAET BASEL, priority 2013, dated 2017).

In one test the test system is pPKB S473. Description: In-cell Western blot, pPKB S473. It counts as cell-based. Conditions: Homo sapiens; A2058 cells, treated 1 h, normalized to α-Tubulin. The protocol:
(§1) A2058 cells were plated at 20,000 cells/well in a 96-well plate (Perkin Elmer, Cat. No. 6005558) and 24 h later treated with different compounds for 1 h. […] Cells were fixed with 4% paraformaldehyde for 30 min at RT, washed 2 times with 1% BSA in PBS, permeabilized with 0.1% Triton X-100 in PBS/1% BSA for 30 min at rt and blocked with 5% goat serum in PBS/1% BSA/0.1% Triton X-100 for 30 min at rt. Cells were stained with primary antibody either with rabbit anti-pPKB S473 (1:500; Cell Signalling Technology, Cat. No. 4058) combined with mouse anti-α-Tubulin (1:2000; used for normalization; Sigma, Cat. No. T9026) or with rabbit anti-pS6 S235/S236 (1:500; Cell Signalling Technology, Cat. No. 4856) combined with mouse anti-α-Tubulin (1:2000; used for normalization) over night at 4° C. After 3 times 5 min wash with PBS/1% BSA/0.1% Triton cells were treated with the secondary antibodies goat-anti-mouse IRDye680 (LICOR, Cat. No. 926-68070) and goat-anti-rabbit IRDye800 (LICOR, 926-32211) (each diluted 1:500 in PBS/1% BSA/0.1% Triton) for 1 h while shaking in the dark. Cells were washed 3 times 5 min with PBS/1% BSA/0.1% Triton and plate scanned with the Odyssey Infrared Scanning system using both 700 and 800 nm channels. […] To correct for background staining in the data analysis wells were treated only with secondary antibodies.
(§2) For data analysis the mean background signal from channel 700 nm and 800 nm were subtracted from each signal in channel 700 nm and 800 nm, respectively. The signals in each channel were normalized to the 0% inhibition and then signal ratio 800 nm over 700 nm was performed to obtain the values for either pPBK S473 or pS6 S235/S236 normalized to α-Tubulin.
(§3) IC50 values of each compound were determined by plotting the normalized pPBK S473 and pS6 S235/S236 signals, respectively, versus the compound concentrations (in logarithmic scale) and then by fitting a sigmoidal dose-response curve with variable slope to the data using GraphPad™ Prism.

The test system of a further test is pS6 S235/236. Description: In-cell Western blot, pS6 S235/236. Conditions: Homo sapiens; A2058 cells, treated 1 h, normalized to α-Tubulin. It counts as cell-based. As to the method:
as §1, §2, §3

Another test deals with T1, PI3K alpha (p110α) (Homo sapiens, UniProt P42336).
T1 construct: purchased Life Technologies PV4789
T1 sequence (P42336 whole entry): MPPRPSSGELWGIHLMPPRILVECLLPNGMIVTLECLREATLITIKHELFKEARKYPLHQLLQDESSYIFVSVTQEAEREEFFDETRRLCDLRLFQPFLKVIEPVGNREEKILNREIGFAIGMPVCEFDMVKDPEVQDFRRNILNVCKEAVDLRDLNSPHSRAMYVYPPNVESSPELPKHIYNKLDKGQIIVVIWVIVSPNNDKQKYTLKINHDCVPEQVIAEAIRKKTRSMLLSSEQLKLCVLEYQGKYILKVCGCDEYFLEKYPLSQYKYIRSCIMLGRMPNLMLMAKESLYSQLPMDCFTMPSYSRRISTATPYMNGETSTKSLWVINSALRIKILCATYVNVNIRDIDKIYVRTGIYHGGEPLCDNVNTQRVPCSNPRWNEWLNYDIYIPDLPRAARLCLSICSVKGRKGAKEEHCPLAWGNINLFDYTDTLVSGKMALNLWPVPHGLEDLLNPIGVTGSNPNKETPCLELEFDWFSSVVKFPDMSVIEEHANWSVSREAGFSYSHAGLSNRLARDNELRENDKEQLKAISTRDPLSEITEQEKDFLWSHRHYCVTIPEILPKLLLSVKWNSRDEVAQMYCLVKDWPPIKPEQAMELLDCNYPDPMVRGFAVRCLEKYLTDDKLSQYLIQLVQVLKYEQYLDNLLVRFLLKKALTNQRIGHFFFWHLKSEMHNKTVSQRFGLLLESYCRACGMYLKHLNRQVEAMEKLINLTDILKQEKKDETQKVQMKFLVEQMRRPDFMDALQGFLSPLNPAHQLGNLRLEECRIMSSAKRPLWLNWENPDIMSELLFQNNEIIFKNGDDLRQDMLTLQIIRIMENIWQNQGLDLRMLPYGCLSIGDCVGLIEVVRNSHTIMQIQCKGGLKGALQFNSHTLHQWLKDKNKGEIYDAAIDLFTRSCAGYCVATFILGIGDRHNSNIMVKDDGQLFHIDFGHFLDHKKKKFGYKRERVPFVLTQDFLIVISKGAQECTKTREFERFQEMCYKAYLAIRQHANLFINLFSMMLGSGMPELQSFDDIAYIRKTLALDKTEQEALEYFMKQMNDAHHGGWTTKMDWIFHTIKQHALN
T1 sequence (P27986 whole entry partner): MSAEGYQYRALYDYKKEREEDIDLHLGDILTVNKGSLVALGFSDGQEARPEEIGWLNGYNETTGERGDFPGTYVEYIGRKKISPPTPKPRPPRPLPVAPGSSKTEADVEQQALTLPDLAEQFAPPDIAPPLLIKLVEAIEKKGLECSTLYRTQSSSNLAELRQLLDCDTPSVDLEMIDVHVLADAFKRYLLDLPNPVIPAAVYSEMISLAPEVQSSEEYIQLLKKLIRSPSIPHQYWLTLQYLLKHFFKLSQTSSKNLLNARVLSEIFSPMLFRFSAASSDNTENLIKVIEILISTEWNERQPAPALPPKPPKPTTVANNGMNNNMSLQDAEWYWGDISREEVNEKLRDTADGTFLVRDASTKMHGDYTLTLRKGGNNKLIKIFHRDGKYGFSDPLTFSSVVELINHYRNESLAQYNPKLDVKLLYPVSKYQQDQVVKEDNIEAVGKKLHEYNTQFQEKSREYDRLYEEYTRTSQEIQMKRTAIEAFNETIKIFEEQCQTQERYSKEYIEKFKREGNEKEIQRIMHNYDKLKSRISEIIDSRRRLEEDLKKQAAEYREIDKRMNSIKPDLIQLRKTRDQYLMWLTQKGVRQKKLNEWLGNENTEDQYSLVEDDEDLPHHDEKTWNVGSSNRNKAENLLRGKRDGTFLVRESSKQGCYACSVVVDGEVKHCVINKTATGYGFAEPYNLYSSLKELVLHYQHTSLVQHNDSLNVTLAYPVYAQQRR
Kind of test: In vitro PI3K alpha binding assay (time-resolved FRET, Tracer 314). The settings on record: N-terminally His-tagged PI3K alpha, 20 nM Tracer 314, 1 h at rt. The protocol:
N-terminally His-tagged PI3K alpha (Cat. No. PV4789; 0.49 mg/ml), Alexa Fluor® 647 labeled kinase Tracer 314 (Cat. No. PV6087), Biotin anti-His Tag antibody (Cat. No PV6089) and LanthaScreen® Eu-Streptavidin (Cat. No. PV5899) were purchased from Life Technologies. The 1× Kinase Buffer A consists of 50 mM HEPES pH 7.5, 10 mM MgCl2, 1 mM EGTA, and 0.01% (v/v) Brij-35 (Sigma Cat. No. B4184-100ML).
A 4-fold serial dilution of each compound to be tested was prepared in DMSO (master dilution) in a 96-well polystyrene plate (Falcon Cat. No. 353072, flat bottom) with the highest concentration at 1000 μM and the lowest at 0.004 μM. The master dilution series were diluted further 33.3-fold into Kinase Buffer A by transferring 5 μl of each concentration of diluted compound to 162 μl Kinase Buffer A in a new 96-well plate resulting to a 3-fold serially compound dilution. Based on a Tracer 314 titration experiment a working concentration of 20 nM was chosen. Therefore a 60 nM Tracer 314 solution in Kinase Buffer A was prepared resulting in a 3-fold concentrated solution. A 3-fold concentrated kinase/antibody solution at 15 nM kinase, 6 nM antibody and 6 nM Eu-Streptavidin was prepared in Kinase Buffer A. Five μl of each 3× serially diluted compound were dispensed in a 384-well plate in duplicate. Then to each well 5 μl of 3× kinase/antibody mixture was added followed by the addition of 5 μl 3× Tracer 314 solution. After 1 h incubation at rt, time-resolved FRET was measured with a Synergy 4 multi-mode microplate reader (Biotek Instruments) using the following settings: 100 μs delay before data collection, 200 μs time for data collection, 10 measurements per data point. Emission filter: 665 nm/8 nm with sensitivity set to 163 and 620 nm/10 nm with sensitivity set to 135; Excitation filter: 340 nm/30 nm; Dichroic mirror 400 nm.
For data analysis, emission ratio was calculated by dividing the signal emitted at 665 nm from the acceptor (Alexa Fluor® 647 labeled Tracer 314) by the signal emitted at 620 nm from the donor (Eu-labeled antibody). IC50 values of each compound were determined by plotting the emission ratio versus the compound concentrations (in logarithmic scale) and then by fitting a sigmoidal dose-response curve with variable slope to the data using GraphPad™ Prism.

For the compound `Nc1cc(C(F)(F)F)c(-c2nc(N3CCOCC3)c3c(n2)N2CCOC[C@H]2C3)cn1` [Compound 6, (R)-5-(4-morpholino-5a,6,8,9-tetrahydro-5H-pyrimido[5′,4′:4,5]pyrrolo[2,1-c][1,4]oxazin-2-yl)-4-(trifluoromethyl)pyridin-2-amine], the half-maximal inhibitory concentration (IC50) in the test on pPKB S473 is 425 nM; with pS6 S235/236, 696 nM; on PI3K alpha (p110α), 390 nM.

On to `Nc1ncc(-c2nc(N3CCOCC3)c3c(n2)N2CCOC[C@H]2C3)cn1` [Compound 9, (R)-5-(4-morpholino-5a,6,8,9-tetrahydro-5H-pyrimido[5′,4′:4,5]pyrrolo[2,1-c][1,4]oxazin-2-yl)pyrimidin-2-amine], for which the results for the IC50 in the test on pPKB S473, in the test with pS6 S235/236 and at PI3K alpha (p110α) were 145 nM, 65 nM and 411 nM, respectively.

Turning to `Nc1cc(C(F)(F)F)c(-c2nc(N3CCOCC3)c3c(n2)N2CCOC[C@@H]2C3)cn1` [Compound 22, (S)-5-(4-morpholino-5a,6,8,9-tetrahydro-5H-pyrimido[5′,4′:4,5]pyrrolo[2,1-c][1,4]oxazin-2-yl)-4-(trifluoromethyl)pyridin-2-amine], the half-inhibitory concentration (IC50) with pPKB S473 came out at 428 nM; with pS6 S235/236, 1090 nM; at PI3K alpha (p110α) it was 98.1 nM.

Regarding `Nc1ncc(-c2nc(N3CCOCC3)c3c(n2)N2CCOC[C@@H]2C3)cn1` [Compound 25, (S)-5-(4-morpholino-5a,6,8,9-tetrahydro-5H-pyrimido[5′,4′:4,5]pyrrolo[2,1-c][1,4]oxazin-2-yl)pyrimidin-2-amine], the results for the IC50 in the test on pPKB S473, in the test on pS6 S235/236 and on PI3K alpha (p110α) were 154 nM, 98 nM and 76 nM, respectively.

For the compound `Nc1cc(C(F)(F)F)c(-c2nc(N3CCOCC3)nc3c2C[C@@H]2COCCN32)cn1` [Compound 38, (R)-5-(2-morpholino-5a,6,8,9-tetrahydro-5H-pyrimido[5′,4′:4,5]pyrrolo[2,1-c][1,4]oxazin-4-yl)-4-(trifluoromethyl)pyridin-2-amine], the IC50 was found to be 5910 nM in the test on pPKB S473, 9080 nM in the test with pS6 S235/236 and 2620 nM on PI3K alpha (p110α).

For the compound `Nc1ncc(-c2nc(N3CCOCC3)nc3c2C[C@@H]2COCCN32)cn1` [Compound 41, (R)-5-(2-morpholino-5a,6,8,9-tetrahydro-5H-pyrimido[5′,4′:4,5]pyrrolo[2,1-c][1,4]oxazin-4-yl)pyrimidin-2-amine], the results for the half-maximal inhibitory concentration (IC50) in the test with pPKB S473, in the test with pS6 S235/236 and on PI3K alpha (p110α) were 575 nM, 574 nM and 231 nM, respectively.

On to `Nc1cc(C(F)(F)F)c(-c2nc(N3CCOCC3)nc3c2C[C@H]2COCCN32)cn1` [Compound 54, (S)-5-(2-morpholino-5a,6,8,9-tetrahydro-5H-pyrimido[5′,4′:4,5]pyrrolo[2,1-c][1,4]oxazin-4-yl)-4-(trifluoromethyl)pyridin-2-amine], for which the IC50 is 833 nM with pPKB S473, 2110 nM in the test on pS6 S235/236 and 383 nM at PI3K alpha (p110α).

Consider `Nc1ncc(-c2nc(N3CCOCC3)nc3c2C[C@H]2COCCN32)cn1` [Compound 57, (S)-5-(2-morpholino-5a,6,8,9-tetrahydro-5H-pyrimido[5′,4′:4,5]pyrrolo[2,1-c][1,4]oxazin-4-yl)pyrimidin-2-amine], for which the IC50 in the test with pPKB S473 was 1260 nM; with pS6 S235/236, 594 nM; on PI3K alpha (p110α), 1640 nM.
